Measurements reported in patent US11845730B2, “1,3-substituted cyclobutyl derivatives and uses thereof” (Novartis AG, priority 2021, dated 2023).
Where a name gives a salt, the structure may show the parent alone.

Biological target: human TRPV1 (Homo sapiens (Human), UniProt Q8NER1)
Conditions: read-out: IC50 (μM), antagonist effect against human TRPV1; CHO cells expressing human TrpV1; stimulated with 2.5 μM NADA (EC80); mean of at least three independent experiments
Experimental: Chinese Hamster Ovary (CHO) cells transfected to express human TrpV1 receptor (which are herein referred to as CHO-huTrpV1 cells), were grown in F-12 Ham's Nutrient Mixture media (HyClone SH30026.01) supplemented with 10% Fetal Bovine Serum (Invitrogen #26140-079), 1% Antibiotic/antimycotic (Invitrogen #15240-062) and 500 ug/mL geneticin (ThermoFisher scientific #1031035). Cells were grown in T-75 flasks at 37° C. incubator with 5% CO2. The cells were passaged twice a week at a ratio of 1:10 to 1:20 to maintain steady growth. For experimentation, cells were harvested at approximately 80% confluency and plated onto 384 well black cell culture plates (cat #781091, Greinier Bio-One Inc.) at 15,000 cells per well in 20 μl media and grown overnight.
The loading dye was prepared following instruction of Calcium 6 assay kit (Molecular Probes, #R8190): 10 ml buffer from bottle B was added to 1 vial of bottle A (adapted to room temperature from −20° C.) and mixed well, then 2.5 mM of fresh prepared probenecid, was added and mixed well. 20 μl/well of loading dye was added on top of the cells, and incubated at 37° C. for 1 hour 30 min.
Assay buffer preparation: 1×HBSS, 2 mM HEPES, 0.1% BSA plus 2.5 mM freshly prepared probenecid (Invitrogen, #P36400). 25 μl/well assay buffer in 384 well clear plate (cat #782281, Greiner Bio-one) was dispensed with buffer distributor (Multidrop ComB1 from Thermo Scientific). The compounds were in 384 Echo plate (cat #LPL0200, Labcyte) and the starting concentration of compound was 10 mM, then 1 to 3 serial dilution in 100% DMSO, 8 ul/well). 125 nl compounds was transferred to the 384 well plate containing 25 μl/well buffer with Echo® 555 Liquid Handler (Labcyte), such that the compound concentration was 5 fold of final concentration. The plate was shook slowly at 40 rpm/min for 10 min to mix. 10 μl of 5 fold compound in the buffer was transferred to the cell plate (containing 20 μl cells and 20 μl dye) using Vertical Pipetting Station 384ST (Agilent Technologies). Six fold of final concentration of NADA (N-arachidonyl dopamine, cat #A8848, Sigma) in the assay buffer was prepared and 30 μl/well was distributed in 384 well clear plate.
After compounds were added to the cell plate with loading dye, within 10-15 minutes, cell plate and plate containing NADA was placed into the FLIPR (Fluorescent Imaging Plate Reader) instrument (Tetra System, Molecular device). The TRPV1 receptor was stimulated by application of 10 μl per well of NADA. For testing the effect of compounds for possible antagonism, 2.5 μM NADA was used at the EC80 concentration.
For determination of antagonist IC50 values (concentration of antagonist that inhibits response to NADA by 50%), at least 10 antagonist concentration were measured in triplicate. The response in the presence of the antagonist was calculated as a percentage of the control response to NADA and was plotted against the concentration of the antagonist. The IC50 was estimated by non-linear regression analysis to sigmoidal-logistic curves by HELIOS (PROD 2) system. These values were averaged (means and standard error of the mean) for at least three independent experiments.

Chain of human TRPV1 (Q8NER1 whole entry): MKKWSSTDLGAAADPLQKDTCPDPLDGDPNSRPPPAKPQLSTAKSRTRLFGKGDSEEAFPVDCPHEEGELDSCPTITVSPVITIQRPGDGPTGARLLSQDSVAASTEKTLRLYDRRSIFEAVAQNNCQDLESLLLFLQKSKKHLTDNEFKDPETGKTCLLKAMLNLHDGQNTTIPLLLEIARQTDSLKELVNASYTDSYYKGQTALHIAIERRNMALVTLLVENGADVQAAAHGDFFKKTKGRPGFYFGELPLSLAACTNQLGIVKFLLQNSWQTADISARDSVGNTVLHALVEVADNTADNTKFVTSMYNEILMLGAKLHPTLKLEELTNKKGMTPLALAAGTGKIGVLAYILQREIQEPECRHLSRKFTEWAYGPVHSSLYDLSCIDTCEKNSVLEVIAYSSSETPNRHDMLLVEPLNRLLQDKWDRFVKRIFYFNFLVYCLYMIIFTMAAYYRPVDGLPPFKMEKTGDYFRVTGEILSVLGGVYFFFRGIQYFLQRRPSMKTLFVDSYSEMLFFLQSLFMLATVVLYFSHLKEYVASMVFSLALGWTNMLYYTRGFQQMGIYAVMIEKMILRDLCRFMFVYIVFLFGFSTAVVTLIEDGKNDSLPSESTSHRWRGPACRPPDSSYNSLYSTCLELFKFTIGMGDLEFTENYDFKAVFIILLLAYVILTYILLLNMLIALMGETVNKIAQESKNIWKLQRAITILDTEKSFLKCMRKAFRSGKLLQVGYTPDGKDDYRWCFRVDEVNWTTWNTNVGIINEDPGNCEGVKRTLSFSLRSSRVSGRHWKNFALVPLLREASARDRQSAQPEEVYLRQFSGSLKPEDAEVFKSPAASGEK

Row | Compound | IC50
1 | CC(C)c1cc(O[C@H]2C[C@H](NCc3cccc4cnccc34)C2)ccc1F [Example 43, (1r,3r)-3-(4-fluoro-3-isopropylphenoxy)-N-(isoquinolin-5-ylmethyl)cyclobutan-1-amine, HCl] | 528 nM
2 | Nc1cc2c(CN[C@H]3C[C@H](Oc4ccc(F)c(C(F)(F)F)c4)C3)c(F)cc([C@@H](O)CO)c2cn1 (single isomer, unassigned; peak 1) [Example 21 peak 1] | 4.42 nM
3 | Fc1ccc2cnccc2c1CN[C@H]1C[C@H](Oc2ccc(S(F)(F)(F)(F)F)cc2)C1 [Example 83, (1r,3r)-N-((6-fluoroisoquinolin-5-yl)methyl)-3-(4-(pentafluoro-λ^6-sulfaneyl)phenoxy)cyclobutan-1-amine, HCl] | 207 nM
4 | Cc1ccc(CN[C@H]2C[C@H](Oc3ccc(F)c(C(F)(F)F)c3)C2)c2ccncc12 [Example 24, (1r,3r)-3-(4-fluoro-3-(trifluoromethyl)phenoxy)-N-((8-methylisoquinolin-5-yl)methyl)cyclobutan-1-amine, HCl] | 906 nM
5 | Nc1cc2c(CN[C@H]3C[C@H](Oc4ccc(F)c(C(F)(F)F)c4)C3)c(F)cc([C@H](O)CO)c2cn1 (single isomer, unassigned; peak 2) [Example 21 peak 2] | 11.3 nM
6 | CCOC(=O)c1ccc(O[C@H]2C[C@H](NCc3c(F)ccc4cnccc34)C2)cc1 [Example 80, ethyl 4-((1r,3r)-3-(((6-fluoroisoquinolin-5-yl)methyl)amino)cyclobutoxy)benzoate] | 980 nM
7 | N#Cc1cc(O[C@H]2C[C@H](NCc3c(F)ccc4cnccc34)C2)ccc1C(F)(F)F [Example 59, 5-((1r,3r)-3-(((6-fluoroisoquinolin-5-yl)methyl)amino)cyclobutoxy)-2-(trifluoromethyl)benzonitrile] | 75.8 nM
8 | Fc1ccc(NC2CC(NCc3c(F)ccc4cnccc34)C2)cc1C(F)(F)F (stereo not drawn) [Example 63, N^1-(4-fluoro-3-(trifluoromethyl)phenyl)-N^3-((6-fluoroisoquinolin-5-yl)methyl)cyclobutane-1,3-diamine] | 98.6 nM
9 | Fc1ccc2cnccc2c1CN[C@H]1C[C@H](Oc2ccc3c(c2)OC(F)(F)O3)C1 [Example 46, (1r,3r)-3-((2,2-difluorobenzo[d][1,3]dioxol-5-yl)oxy)-N-((6-fluoroisoquinolin-5-yl)methyl)cyclobutan-1-amine, HCl] | 40.2 nM
10 | Fc1cc(CO[C@H]2C[C@H](NCc3c(F)ccc4cnccc34)C2)ccc1C(F)(F)F [Example 64, (1r,3r)-3-((3-fluoro-4-(trifluoromethyl)benzyl)oxy)-N-((6-fluoroisoquinolin-5-yl)methyl)cyclobutan-1-amine] | 163 nM
11 | Fc1ccc(CO[C@H]2C[C@H](NCc3c(F)ccc4cnccc34)C2)c(F)c1 [Example 105, (1r,3r)-3-((2,4-difluorobenzyl)oxy)-N-((6-fluoroisoquinolin-5-yl)methyl)cyclobutan-1-amine] | 1280 nM
12 | O=C(Cc1c(F)cc(CO)c2cnccc12)N[C@H]1C[C@H](Oc2ccc(F)c(C(F)(F)F)c2)C1 [Example 103, N-((1r,3r)-3-(4-fluoro-3-(trifluoromethyl)phenoxy)cyclobutyl)-2-(6-fluoro-8-(hydroxymethyl)isoquinolin-5-yl)acetamide] | 0.44 nM
13 | OCCc1cc(F)c(CN[C@H]2C[C@H](Oc3ccc(F)c(C(F)(F)F)c3)C2)c2ccncc12 [Example 10, 2-(6-fluoro-5-((((1r,3r)-3-(4-fluoro-3-(trifluoromethyl)phenoxy)cyclobutyl)amino)methyl)isoquinolin-8-yl)ethan-1-ol, HCl] | 166 nM
14 | Cc1cc(O[C@H]2C[C@H](NCc3c(F)ccc4cnccc34)C2)cc(F)c1F [Example 54, (1r,3r)-3-(3,4-difluoro-5-methylphenoxy)-N-((6-fluoroisoquinolin-5-yl)methyl)cyclobutan-1-amine] | 59.5 nM
15 | Fc1cc(O[C@H]2C[C@H](NCc3c(F)ccc4cnccc34)C2)cnc1F [Example 57, (1r,3r)-3-((5,6-difluoropyridin-3-yl)oxy)-N-((6-fluoroisoquinolin-5-yl)methyl)cyclobutan-1-amine] | 656 nM
16 | OCc1cc(F)c(CN[C@H]2C[C@H](Oc3ccc4c(c3)OC(F)(F)O4)C2)c2ccncc12 [Example 47, (5-((((1r,3r)-3-((2,2-difluorobenzo[d][1,3]dioxol-5-yl)oxy)cyclobutyl)amino)methyl)-6-fluoroisoquinolin-8-yl)methanol, HCl] | 23.8 nM
17 | OCc1ccc(CN[C@H]2C[C@H](Oc3ccc(F)c(C(F)(F)F)c3)C2)c2ccncc12 [Example 25, (5-((((1r,3r)-3-(4-fluoro-3-(trifluoromethyl)phenoxy)cyclobutyl)amino)methyl)isoquinolin-8-yl)methanol, HCl] | 100 nM
18 | N#Cc1ncc(O[C@H]2C[C@H](NCc3c(F)ccc4cnccc34)C2)cn1 [Example 108, 5-((1r,3r)-3-(((6-fluoroisoquinolin-5-yl)methyl)amino)cyclobutoxy)pyrimidine-2-carbonitrile] | 2510 nM

Row | Compound | IC50
19 | Nc1cc2c(CN[C@H]3C[C@H](Oc4ccc(F)c(C(F)(F)F)c4)C3)c(F)ccc2cn1 [Example 14, 6-fluoro-5-((((1r,3r)-3-(4-fluoro-3-(trifluoromethyl)phenoxy)cyclobutyl)amino)methyl)isoquinolin-3-amine, HCl] | 4.04 nM
20 | OC(CC(F)(F)F)c1cc(F)c(CN[C@H]2C[C@H](Oc3ccc(F)c(C(F)(F)F)c3)C2)c2ccncc12 (stereo partly drawn) [Example 11, 3,3,3-trifluoro-1-(6-fluoro-5-((((1r,3r)-3-(4-fluoro-3-(trifluoromethyl)phenoxy)cyclobutyl)amino)methyl)isoquinolin-8-yl)propan-1-ol] | 395 nM
21 | Cc1cc(O[C@H]2C[C@H](NCc3c(F)ccc4cnccc34)C2)cc(C(F)(F)F)n1 [Example 106, (1r,3r)-N-((6-fluoroisoquinolin-5-yl)methyl)-3-((2-methyl-6-(trifluoromethyl)pyridin-4-yl)oxy)cyclobutan-1-amine] | 1650 nM
22 | CN(C)c1ccc2cnccc2c1CN[C@H]1C[C@H](Oc2ccc(F)c(C(F)(F)F)c2)C1 [Example 81, 5-((((1r,3r)-3-(4-fluoro-3-(trifluoromethyl)phenoxy)cyclobutyl)amino)methyl)-N,N-dimethylisoquinolin-6-amine, HCl] | 255 nM
23 | Fc1ccc(O[C@H]2C[C@H](NCc3c(F)ccc4cnccc34)C2)c(F)n1 [Example 55, (1r,3r)-3-((2,6-difluoropyridin-3-yl)oxy)-N-((6-fluoroisoquinolin-5-yl)methyl)cyclobutan-1-amine] | 352 nM
24 | Fc1ccc2cnccc2c1CN[C@H]1C[C@H](Oc2nc3ccccc3s2)C1 [Example 96, (1r,3r)-3-(benzo[d]thiazol-2-yloxy)-N-((6-fluoroisoquinolin-5-yl)methyl)cyclobutan-1-amine, HCl] | 747 nM
25 | Fc1ccc(S[C@H]2C[C@H](NCc3cccc4cnccc34)C2)cc1C(F)(F)F [Example 99, (1r,3r)-3-((4-fluoro-3-(trifluoromethyl)phenyl)thio)-N-(isoquinolin-5-ylmethyl)cyclobutan-1-amine, HCl] | 362 nM
26 | Fc1cccc(O[C@H]2C[C@H](NCc3c(F)ccc4cnccc34)C2)c1F [Example 35, (1r,3r)-3-(2,3-difluorophenoxy)-N-((6-fluoroisoquinolin-5-yl)methyl)cyclobutan-1-amine] | 128 nM
27 | Fc1ccc(O[C@H]2C[C@H](NCc3cccc4cnccc34)C2)cc1C(F)(F)F [Example 22, (1r,3r)-3-(4-fluoro-3-(trifluoromethyl)phenoxy)-N-(isoquinolin-5-ylmethyl)cyclobutan-1-amine, HCl] | 436 nM
28 | COc1c(F)cc(O[C@H]2C[C@H](NCc3c(F)cc(CO)c4cnccc34)C2)cc1F [Example 48, (5-((((1r,3r)-3-(3,5-difluoro-4-methoxyphenoxy)cyclobutyl)amino)methyl)-6-fluoroisoquinolin-8-yl)methanol] | 34.5 nM
29 | Fc1ccc2cnccc2c1CN[C@H]1C[C@H](Oc2ccc(OC(F)F)cc2)C1 [Example 30, (1r,3r)-3-(4-(difluoromethoxy)phenoxy)-N-((6-fluoroisoquinolin-5-yl)methyl)cyclobutan-1-amine, HCl] | 186 nM
30 | Cc1ccc(O[C@H]2C[C@H](NCc3c(F)ccc4cnccc34)C2)cc1C [Example 79, (1r,3r)-3-(3,4-dimethylphenoxy)-N-((6-fluoroisoquinolin-5-yl)methyl)cyclobutan-1-amine, HCl] | 147 nM
31 | CC(C)(C)c1c(F)cc(O[C@H]2C[C@H](NCc3c(F)cc(CO)c4cnccc34)C2)cc1F [Example 45, (5-((((1r,3r)-3-(4-(tert-butyl)-3,5-difluorophenoxy)cyclobutyl)amino)methyl)-6-fluoroisoquinolin-8-yl)methanol] | 18.8 nM
32 | Fc1ccc2cnccc2c1CN[C@H]1C[C@H](Oc2cccc(OC(F)(F)F)c2)C1 [Example 37, (1r,3r)-N-((6-fluoroisoquinolin-5-yl)methyl)-3-(3-(trifluoromethoxy)phenoxy)cyclobutan-1-amine, HCl] | 81.3 nM
33 | Fc1ccc2cnccc2c1CN[C@H]1C[C@H](Oc2ccnc(C(F)(F)F)c2)C1 [Example 56, (1r,3r)-N-((6-fluoroisoquinolin-5-yl)methyl)-3-((2-(trifluoromethyl)pyridin-4-yl)oxy)cyclobutan-1-amine] | 119 nM
34 | Fc1ccc(O[C@H]2C[C@H](NCc3c(F)ccc4cnccc34)C2)cc1OC(F)F [Example 50, (1r,3r)-3-(3-(difluoromethoxy)-4-fluorophenoxy)-N-((6-fluoroisoquinolin-5-yl)methyl)cyclobutan-1-amine] | 80.6 nM
35 | OCC[C@H](O)c1cc(F)c(CN[C@H]2C[C@H](Oc3ccc(F)c(C(F)(F)F)c3)C2)c2ccncc12 (single isomer, unassigned; peak 1) [Example 9 peak 1] | 0.09 nM
36 | Fc1ccc(O[C@H]2C[C@H](NCc3c(F)ccc4cncnc34)C2)cc1C(F)(F)F [Example 102, (1r,3r)-3-(4-fluoro-3-(trifluoromethyl)phenoxy)-N-((7-fluoroquinazolin-8-yl)methyl)cyclobutan-1-amine] | 60.3 nM
